Measurements as given in patent publication US11571485B2, “Peptides and antibodies for detecting changes in alzheimer's disease brain and methods of use thereof” (Sanford Burnham Prebys Medical Discovery Institute, priority 2016, dated 2023).

Experiments:
[1] = tested on: mTHY-1/α-synuclein overexpressing mouse model of Parkinson's disease; test: In vivo homing in Parkinson's disease mouse model; settings: systemically injected
Experimental: All animal experiments were conducted under an approved protocol of the Institutional Animal Care and Use Committee of Sanford Burnham Prebys Medical Discovery Institute. The following transgenic mouse models were used for peptide homing studies—hAPP-J20 ([…], Nature genetics 1, 345-347 (1992)), Tg2576 (Jacobsen et al., Proc Natl Acad Sci USA 103, 5161-5166 (2006)), and mTHY-1-α-synuclein model (Chesselet et al., Neurotherapeutics 9, 297-314 (2012)). The P13 glioblastoma model is a patient-derived orthotopic xenograft model (Bougnaud et al., Oncotarget, (2016)). Spheroids were cultured as described previously (Bjerkvig et al., J Neurosurg 72, 463-475 (1990)). After two weeks in culture, spheroids (volume 2.5 μl) were stereotactically implanted into the brains of nude mice. Mice were used approximately 6 weeks after tumors were induced, when mice started presenting neurological symptoms. The acute brain injury model was setup as previously described (Mann et al., Nature communications 7, 11980 (2016)). Briefly, 8 to 10 week-old male BL6 mice were anaesthetized with 4% isoflurane in 70% N2O and 30% O2, and a 5-mm craniotomy was performed using a portable drill and a trephine over the right parietotemporal cortex using a stereotactic frame. […]

human AD brain sections = test: Ex vivo overlay binding to human AD brain sections
Experimental: PFA fixed sections were incubated in PBS for 10 minutes, followed by PBS-Triton-x-100 (0.2%) for 10 minutes. Sections were rinsed with PBST, mounted in a slide holder, and subsequently washed with PBS-T during 12 minutes. Slides were blocked with blocking buffer for 60 minutes at room temperature. Then, peptides were incubated at a concentration of 10 μg/mL dissolved in concentrated blocking buffer, for three hours at room temperature. Sections were then washed with three 4-minute washes of PBS-T, and subsequently fixed with PFA for 10 minutes, followed by three 3-minute washes with PBS-T. Sections were then incubated with primary antibody at 1/200 in diluted blocking buffer overnight at 4° C. Later, sections were washed with three 4-minute washes with PBS-T. Slides were then incubated with secondary antibody at 1/200 dilution in diluted blocking buffer for 30 minutes at room temperature, followed by three 4-minute washes of PBS-T. Sections were then counterstained with DAPI for 5 minutes, washed with PBS-T and mounted.
Postmortem human brain samples were obtained from the New York Brain Bank at Columbia University, New York. The patient was a person with a diagnosis of AD neuropathologic changes ([A3, B3, C3]). The normal brain tissue was obtained from BioChain Institute Inc. (Newark, Calif.). The donor was a person without any neurologic diagnosis on detailed neuropathologic evaluation. The Parkinson's disease brain tissue was obtained from UCSD Pathology bank. Frozen brain tissue was sectioned for immunohistochemistry and ex vivo overlay binding with FAM-peptides.

[2] = tested on: hippocampus of hAPP-J20 AD and wild-type mice; test: In vivo CX7C T7 phage library screen, sequencing of phage recovered from hippocampus; set-up: species or system mouse; settings: 9-month AD mouse vs normal mouse hippocampus
Experimental: In vivo phage screening was conducted using a T7 phage library expressing random peptides with the composition of CXnC (C=cysteine; X=any amino acid; n=7). The mouse model used for this screening is the hAPP-J20 that expresses amyloid precursor protein (APP) with both the Swedish and Indiana mutations (Murrell et al., Science 254, 97-99. (1991); Mullan et al., Nat. Genet. 1, 345-347. (1992)). Peptides homing to the hippocampus of these mice was the focus because the hippocampal region is where the AB-related lesions and damage are most prevalent early on in the disease.
A CX7C phage library was intravenously injected into 9 month-old AD and wild-type (WT) littermate mice, and allowed to circulate for 30 min, after which mice were perfused with saline, brains were collected, and the hippocampal region was dissected and subjected to phage titration and high throughput sequencing of the phage inserts. A surprise result was that the number of phage recovered from the AD hippocampus samples was much higher than the number recovered from a similar screen on normal littermates of the AD mice (FIG. 1A). […] BBB leakage has also been reported in AD patients.
Parallel phage library screens were performed on a normal mouse and a 9-month old AD transgenic mouse (J20 hAPP tg mouse line, which expresses transgenic amyloid precursor protein with two disease-related mutations). The library was intravenously injected into anesthetized mice and the hippocampal area of the brain was collected 30 min after intravenous injection of the library, phage was isolated from the tissue samples and subjected to high throughput sequencing of the peptide-encoding inserts in the phage DNA. Table 1 list most abundantly represented peptide from the two kinds of brains, and all peptides with significant representation in the AD brain and absent or nearly absent in the normal brain are listed in Table 2. Two peptides, CASPRLSKC (SEQ ID NO: 3) and CESPLLSEC (SEQ ID NO: 11), from among the highest scoring ones were subjected to detailed studies as described below.
hAPP-J20 mice were intravenously injected with 1e10 pfu of a CX7C (wherein X is any amino acid) naïve phage library, in 100 μL of PBS. The library was allowed to circulate for 30 minutes, after which mice were anesthetized with 2.5% avertin and perfused with PBS intracardially. The brain was removed and the hippocampus was extracted and homogenized in LB-NP 40 (1%) and phage was processed as described (Teesalu et al., Methods Enzymol 503, 35-56 (2012)). The phages in the lysate were rescued by amplification in E. coli and peptide-encoding portion of the phage genome was sequenced using Ion Torrent high throughput sequencing.

Binding to human AD brain sections (human AD brain sections; overlay): bound strongly to the hippocampal region
Sequence: CDAGRKQKC
Accumulation in Parkinson's model brain [1]: accumulated in GFAP-positive astrocytes | Inhibition of binding to human AD sections by anti-CTGF antibody (human AD brain sections; pre-incubation with anti-CTGF antibody): partially inhibited by pre-incubation with anti-CTGF antibody | Representation in sequenced phage pools, AD versus normal brain [2]: dominated
